Experiments:
Assay in all cases: KinomeScan
Format in all cases: binding
Details in all cases: 1 μM
[1] = biological target: T1, ABL1(F317I)-nonphosphorylated (Homo sapiens, UniProt P00519, F317I)
T1 construct: purchased DiscoverX (KINOMEscan)

[2] = biological target: T2, ABL1(F317L)-phosphorylated (Homo sapiens, UniProt P00519, F317L)
T2 construct: purchased DiscoverX (KINOMEscan)

[3] = biological target: T3, ABL1(H396P)-nonphosphorylated (Homo sapiens, UniProt P00519, H396P)
T3 construct: purchased DiscoverX (KINOMEscan)

[4] = biological target: T4, ABL1(Q252H)-nonphosphorylated (Homo sapiens, UniProt P00519, Q252H)
T4 construct: purchased DiscoverX (KINOMEscan)

[5] = biological target: T5, ABL1-nonphosphorylated (Homo sapiens, UniProt P00519)
T5 construct: purchased DiscoverX (KINOMEscan)

[6] = biological target: T6, ASK2 (Homo sapiens, UniProt O95382)
T6 construct: purchased DiscoverX (KINOMEscan)
T6 sequence (O95382 whole entry): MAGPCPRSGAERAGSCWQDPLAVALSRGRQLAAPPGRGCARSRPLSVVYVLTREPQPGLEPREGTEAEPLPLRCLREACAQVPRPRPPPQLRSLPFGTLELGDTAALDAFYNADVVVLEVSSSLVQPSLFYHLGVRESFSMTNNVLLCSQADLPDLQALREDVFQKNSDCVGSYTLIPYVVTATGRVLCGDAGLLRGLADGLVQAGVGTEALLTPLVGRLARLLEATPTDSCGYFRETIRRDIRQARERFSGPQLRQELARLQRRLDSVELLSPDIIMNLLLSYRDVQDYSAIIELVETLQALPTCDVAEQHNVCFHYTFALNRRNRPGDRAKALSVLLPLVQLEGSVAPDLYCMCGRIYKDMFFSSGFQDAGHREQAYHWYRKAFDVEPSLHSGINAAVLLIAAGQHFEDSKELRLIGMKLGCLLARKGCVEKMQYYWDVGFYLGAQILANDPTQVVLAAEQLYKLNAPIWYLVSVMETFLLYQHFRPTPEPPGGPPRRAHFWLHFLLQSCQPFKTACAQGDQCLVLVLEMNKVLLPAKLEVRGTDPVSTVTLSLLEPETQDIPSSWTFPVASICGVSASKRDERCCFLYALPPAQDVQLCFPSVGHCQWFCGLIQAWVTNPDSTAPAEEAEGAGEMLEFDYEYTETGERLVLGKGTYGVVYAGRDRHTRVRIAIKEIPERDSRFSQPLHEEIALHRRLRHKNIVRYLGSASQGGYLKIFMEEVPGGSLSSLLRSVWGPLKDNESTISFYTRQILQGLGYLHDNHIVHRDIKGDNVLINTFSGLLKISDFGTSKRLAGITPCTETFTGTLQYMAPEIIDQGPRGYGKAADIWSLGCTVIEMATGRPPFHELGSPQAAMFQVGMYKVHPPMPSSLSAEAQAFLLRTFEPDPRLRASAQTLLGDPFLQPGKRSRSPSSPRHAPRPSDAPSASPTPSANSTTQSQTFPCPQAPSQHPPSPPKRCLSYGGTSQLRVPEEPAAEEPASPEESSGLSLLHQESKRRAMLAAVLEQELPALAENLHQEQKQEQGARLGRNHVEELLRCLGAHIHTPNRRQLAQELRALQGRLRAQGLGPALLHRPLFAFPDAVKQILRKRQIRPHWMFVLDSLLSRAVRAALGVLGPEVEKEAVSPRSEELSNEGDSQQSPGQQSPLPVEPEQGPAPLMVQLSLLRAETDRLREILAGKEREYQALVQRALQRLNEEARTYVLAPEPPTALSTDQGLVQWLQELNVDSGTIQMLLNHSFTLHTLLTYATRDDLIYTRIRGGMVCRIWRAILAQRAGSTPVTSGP

[7] = biological target: T7, BIKE (Homo sapiens, UniProt Q9NSY1)
T7 construct: purchased DiscoverX (KINOMEscan)

[8] = biological target: T8, BMPR1A (Homo sapiens, UniProt P36894)
T8 construct: purchased DiscoverX (KINOMEscan)

[9] = biological target: T9, CAMK1 (Homo sapiens, UniProt Q14012)
T9 construct: purchased DiscoverX (KINOMEscan)
T9 sequence (Q14012 whole entry): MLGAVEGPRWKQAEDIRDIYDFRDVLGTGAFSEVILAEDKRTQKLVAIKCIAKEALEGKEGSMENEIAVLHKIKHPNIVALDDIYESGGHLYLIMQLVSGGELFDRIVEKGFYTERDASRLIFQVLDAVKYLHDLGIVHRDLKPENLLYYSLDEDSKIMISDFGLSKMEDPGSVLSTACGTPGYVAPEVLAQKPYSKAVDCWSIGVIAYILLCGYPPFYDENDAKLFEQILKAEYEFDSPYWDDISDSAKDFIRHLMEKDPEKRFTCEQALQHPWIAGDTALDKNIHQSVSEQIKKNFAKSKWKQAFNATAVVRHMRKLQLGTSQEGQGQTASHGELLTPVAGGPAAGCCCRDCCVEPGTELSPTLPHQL

[10] = biological target: T10, CDK7 (Homo sapiens, UniProt P50613)
T10 construct: purchased DiscoverX (KINOMEscan)

[11] = biological target: T11, CDKL5 (Homo sapiens, UniProt O76039)
T11 construct: purchased DiscoverX (KINOMEscan)

[12] = biological target: T12, CSK (Homo sapiens, UniProt P41240)
T12 construct: purchased DiscoverX (KINOMEscan)

[13] = biological target: T13, CSNK1G3 (Homo sapiens, UniProt Q9Y6M4)
T13 construct: purchased DiscoverX (KINOMEscan)

[14] = biological target: T14, CSNK2A2 (Homo sapiens, UniProt P19784)
T14 construct: purchased DiscoverX (KINOMEscan)

[15] = biological target: T15, DAPK2 (Homo sapiens, UniProt Q9UIK4)
T15 construct: purchased DiscoverX (KINOMEscan)

[16] = biological target: T16, DCAMKL2 (Homo sapiens, UniProt Q8N568)
T16 construct: purchased DiscoverX (KINOMEscan)

[17] = biological target: T17, EIF2AK1 (Homo sapiens, UniProt Q9BQI3)
T17 construct: purchased DiscoverX (KINOMEscan)

[18] = biological target: T18, ERK1 (Homo sapiens, UniProt P27361)
T18 construct: purchased DiscoverX (KINOMEscan)

[19] = biological target: T19, FGFR1 (Homo sapiens, UniProt P11362)
T19 construct: purchased DiscoverX (KINOMEscan)

[20] = biological target: T20, FLT3(R834Q) (Homo sapiens, UniProt P36888, R834Q)
T20 construct: purchased DiscoverX (KINOMEscan)

[21] = biological target: T21, HIPK3 (Homo sapiens, UniProt Q9H422)
T21 construct: purchased DiscoverX (KINOMEscan)

[22] = biological target: T22, JAK2(JH1domain-catalytic) (Homo sapiens, UniProt O60674)
T22 construct: JAK2(JH1domain-catalytic); purchased DiscoverX (KINOMEscan)
T22 sequence (O60674 840-1132 limits assumed): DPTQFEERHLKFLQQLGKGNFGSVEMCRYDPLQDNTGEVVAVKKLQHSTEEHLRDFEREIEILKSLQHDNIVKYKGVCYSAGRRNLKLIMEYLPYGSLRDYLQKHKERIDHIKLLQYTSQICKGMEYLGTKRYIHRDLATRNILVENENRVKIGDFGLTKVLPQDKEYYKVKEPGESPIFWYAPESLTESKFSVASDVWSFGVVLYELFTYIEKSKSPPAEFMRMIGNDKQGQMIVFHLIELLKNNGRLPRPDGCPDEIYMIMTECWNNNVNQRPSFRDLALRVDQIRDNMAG

[23] = biological target: T23, MARK1 (Homo sapiens, UniProt Q9P0L2)
T23 construct: purchased DiscoverX (KINOMEscan)

[24] = biological target: T24, MEK2 (Homo sapiens, UniProt P36507)
T24 construct: purchased DiscoverX (KINOMEscan)

[25] = biological target: T25, MEK6 (Homo sapiens, UniProt P52564)
T25 construct: purchased DiscoverX (KINOMEscan)

[26] = biological target: T26, MET(M1250T) (Homo sapiens, UniProt P08581, M1250T)
T26 construct: purchased DiscoverX (KINOMEscan)

[27] = biological target: T27, MRCKB (Homo sapiens, UniProt Q9Y5S2)
T27 construct: purchased DiscoverX (KINOMEscan)

[28] = biological target: T28, MUSK (Homo sapiens, UniProt O15146)
T28 construct: purchased DiscoverX (KINOMEscan)

[29] = biological target: T29, MYLK4 (Homo sapiens, UniProt Q86YV6)
T29 construct: purchased DiscoverX (KINOMEscan)

[30] = biological target: T30, MYO3B (Homo sapiens, UniProt Q8WXR4)
T30 construct: purchased DiscoverX (KINOMEscan)
T30 sequence (Q8WXR4 whole entry): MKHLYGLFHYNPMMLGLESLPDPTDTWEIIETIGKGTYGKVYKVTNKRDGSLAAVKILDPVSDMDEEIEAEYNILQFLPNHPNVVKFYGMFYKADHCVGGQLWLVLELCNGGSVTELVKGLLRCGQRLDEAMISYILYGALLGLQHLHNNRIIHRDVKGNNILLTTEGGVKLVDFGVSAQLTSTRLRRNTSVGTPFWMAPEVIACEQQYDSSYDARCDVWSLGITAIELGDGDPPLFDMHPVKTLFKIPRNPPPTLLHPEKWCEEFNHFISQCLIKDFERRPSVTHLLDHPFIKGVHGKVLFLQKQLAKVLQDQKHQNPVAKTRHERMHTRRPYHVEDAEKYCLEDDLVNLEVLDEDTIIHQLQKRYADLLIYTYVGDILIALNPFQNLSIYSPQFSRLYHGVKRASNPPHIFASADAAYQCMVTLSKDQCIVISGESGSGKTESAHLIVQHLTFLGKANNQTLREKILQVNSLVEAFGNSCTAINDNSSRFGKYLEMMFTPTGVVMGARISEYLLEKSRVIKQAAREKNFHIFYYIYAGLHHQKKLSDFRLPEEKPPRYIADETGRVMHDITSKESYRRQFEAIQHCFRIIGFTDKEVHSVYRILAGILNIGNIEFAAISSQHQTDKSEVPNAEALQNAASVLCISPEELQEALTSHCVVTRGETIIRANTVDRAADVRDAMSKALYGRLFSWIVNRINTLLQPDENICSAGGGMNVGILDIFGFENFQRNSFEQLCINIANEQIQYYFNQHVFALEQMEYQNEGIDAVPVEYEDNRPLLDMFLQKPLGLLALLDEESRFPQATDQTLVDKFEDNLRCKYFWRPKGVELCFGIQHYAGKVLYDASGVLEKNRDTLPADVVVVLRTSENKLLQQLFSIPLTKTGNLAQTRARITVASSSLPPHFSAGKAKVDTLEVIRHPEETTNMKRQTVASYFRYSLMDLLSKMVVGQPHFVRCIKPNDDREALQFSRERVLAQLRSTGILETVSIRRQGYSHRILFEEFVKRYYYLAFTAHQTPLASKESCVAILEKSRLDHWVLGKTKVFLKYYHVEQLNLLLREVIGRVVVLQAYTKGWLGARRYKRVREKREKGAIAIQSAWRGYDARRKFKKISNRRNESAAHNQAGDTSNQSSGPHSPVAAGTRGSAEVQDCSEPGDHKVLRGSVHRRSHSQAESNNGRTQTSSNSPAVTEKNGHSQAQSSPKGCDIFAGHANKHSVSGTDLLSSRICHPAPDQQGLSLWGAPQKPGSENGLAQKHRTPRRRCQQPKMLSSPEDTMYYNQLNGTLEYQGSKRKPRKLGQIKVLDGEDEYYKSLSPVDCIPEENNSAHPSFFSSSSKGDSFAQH

[31] = biological target: T31, SLK (Homo sapiens, UniProt Q9H2G2)
T31 construct: purchased DiscoverX (KINOMEscan)

[32] = biological target: T32, TLK1 (Homo sapiens, UniProt Q9UKI8)
T32 construct: purchased DiscoverX (KINOMEscan)
T32 sequence (Q9UKI8 whole entry): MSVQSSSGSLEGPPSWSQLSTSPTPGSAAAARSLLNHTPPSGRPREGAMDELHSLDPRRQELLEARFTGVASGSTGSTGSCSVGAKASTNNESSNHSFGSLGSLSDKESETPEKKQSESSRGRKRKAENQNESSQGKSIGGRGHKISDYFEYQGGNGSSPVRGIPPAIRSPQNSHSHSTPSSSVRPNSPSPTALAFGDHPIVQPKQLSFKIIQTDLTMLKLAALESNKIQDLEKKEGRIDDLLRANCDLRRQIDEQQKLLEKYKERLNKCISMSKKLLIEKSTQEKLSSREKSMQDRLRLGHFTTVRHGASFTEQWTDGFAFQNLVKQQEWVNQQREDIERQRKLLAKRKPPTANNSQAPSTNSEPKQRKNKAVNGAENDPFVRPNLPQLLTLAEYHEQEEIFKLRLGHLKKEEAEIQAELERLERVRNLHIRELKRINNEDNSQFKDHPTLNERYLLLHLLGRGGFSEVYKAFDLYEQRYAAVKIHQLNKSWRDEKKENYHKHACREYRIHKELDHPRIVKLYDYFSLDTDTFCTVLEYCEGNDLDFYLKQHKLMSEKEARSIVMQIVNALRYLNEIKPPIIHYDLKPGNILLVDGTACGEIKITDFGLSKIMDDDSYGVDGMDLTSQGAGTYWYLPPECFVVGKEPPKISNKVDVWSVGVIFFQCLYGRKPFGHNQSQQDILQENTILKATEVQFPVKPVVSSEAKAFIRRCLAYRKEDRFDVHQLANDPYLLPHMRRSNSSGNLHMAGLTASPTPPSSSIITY

[33] = biological target: T33, TRKB (Homo sapiens, UniProt Q16620)
T33 construct: purchased DiscoverX (KINOMEscan)

[34] = biological target: T34, ULK2 (Homo sapiens, UniProt Q8IYT8)
T34 construct: purchased DiscoverX (KINOMEscan)

[35] = biological target: T35, ULK3 (Homo sapiens, UniProt Q6PHR2)
T35 construct: purchased DiscoverX (KINOMEscan)
T35 sequence (Q6PHR2 whole entry): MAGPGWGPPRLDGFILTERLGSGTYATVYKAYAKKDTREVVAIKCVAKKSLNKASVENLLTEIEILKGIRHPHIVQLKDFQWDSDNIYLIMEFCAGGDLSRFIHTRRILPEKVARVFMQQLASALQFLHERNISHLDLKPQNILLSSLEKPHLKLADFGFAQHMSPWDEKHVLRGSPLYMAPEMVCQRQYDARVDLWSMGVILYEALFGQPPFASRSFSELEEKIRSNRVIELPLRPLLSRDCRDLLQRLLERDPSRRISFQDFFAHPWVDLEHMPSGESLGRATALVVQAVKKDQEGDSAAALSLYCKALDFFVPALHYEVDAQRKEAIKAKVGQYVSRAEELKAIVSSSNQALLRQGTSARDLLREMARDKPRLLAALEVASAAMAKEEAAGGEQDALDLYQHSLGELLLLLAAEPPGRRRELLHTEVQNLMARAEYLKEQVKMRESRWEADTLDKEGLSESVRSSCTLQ

[36] = biological target: T36, YANK1 (Homo sapiens, UniProt Q8WU08)
T36 construct: purchased DiscoverX (KINOMEscan)
T36 sequence (Q8WU08 whole entry): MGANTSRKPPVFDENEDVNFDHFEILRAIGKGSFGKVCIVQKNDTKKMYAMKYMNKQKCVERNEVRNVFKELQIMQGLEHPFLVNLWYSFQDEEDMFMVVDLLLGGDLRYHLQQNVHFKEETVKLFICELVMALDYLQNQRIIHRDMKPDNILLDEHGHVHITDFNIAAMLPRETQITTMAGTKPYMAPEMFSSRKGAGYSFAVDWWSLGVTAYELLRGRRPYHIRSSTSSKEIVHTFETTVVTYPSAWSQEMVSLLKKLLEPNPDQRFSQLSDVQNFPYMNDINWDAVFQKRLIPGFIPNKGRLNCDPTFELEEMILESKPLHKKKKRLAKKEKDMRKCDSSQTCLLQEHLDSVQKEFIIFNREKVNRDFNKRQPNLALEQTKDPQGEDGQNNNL

COc1cc(/C=C2\N=C(N)NC2=O)ccc1O [Polyandrocarpamine A]
Score [1]: 92 | Score [2]: 98 | Score [3]: 95 | Score [4]: 100 | Score [5]: 90 | Score [6]: 100 | Score [7]: 70 | Score [8]: 100 | Score [9]: 100 | Score [10]: 100 | Score [11]: 100 | Score [12]: 100 | Score [13]: 84 | Score [14]: 26 | Score [15]: 58 | Score [16]: 100 | Score [17]: 100 | Score [18]: 100 | Score [19]: 100 | Score [20]: 100 | Score [21]: 19 | Score [22]: 97 | Score [23]: 100 | Score [24]: 100 | Score [25]: 100 | Score [26]: 97 | Score [27]: 100 | Score [28]: 56 | Score [29]: 96 | Score [30]: 88 | Score [31]: 100 | Score [32]: 94 | Score [33]: 100 | Score [34]: 100 | Score [35]: 100 | Score [36]: 100

Reference: article PMC5666424, “Marine-Derived 2-Aminoimidazolone Alkaloids. Leucettamine B-Related Polyandrocarpamines Inhibit Mammalian and Protozoan DYRK & CLK Kinases” (Marine Drugs, 2017)
